Test results from ChEMBL document CHEMBL2385071, “Synthesis and biological investigation of coumarin piperazine (piperidine) derivatives as potential multireceptor atypical antipsychotics” (J Med Chem, 2013).

Assays:
[1] = target: T1, 5-hydroxytryptamine receptor 2C (Rattus norvegicus, UniProt P08909); test: biochemical
T1 sequence (P08909 whole entry): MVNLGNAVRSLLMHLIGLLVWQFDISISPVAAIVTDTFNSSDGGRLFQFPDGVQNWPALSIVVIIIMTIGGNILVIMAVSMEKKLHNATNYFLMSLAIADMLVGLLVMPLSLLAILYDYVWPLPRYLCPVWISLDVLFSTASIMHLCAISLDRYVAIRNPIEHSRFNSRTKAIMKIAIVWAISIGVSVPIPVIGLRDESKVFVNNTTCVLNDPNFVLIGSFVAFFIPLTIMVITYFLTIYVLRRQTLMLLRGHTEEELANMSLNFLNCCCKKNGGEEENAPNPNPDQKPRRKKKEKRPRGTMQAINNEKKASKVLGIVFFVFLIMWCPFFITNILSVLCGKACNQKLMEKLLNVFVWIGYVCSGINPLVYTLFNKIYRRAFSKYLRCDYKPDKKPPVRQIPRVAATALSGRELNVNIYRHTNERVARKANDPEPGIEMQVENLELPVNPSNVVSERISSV
Description: Displacement of [3H]mesulergine from 5HT2C receptor in rat cerebral cortex after 15 mins by liquid scintillation counting analysis

D(2) dopamine receptor = D(2) dopamine receptor (Rattus norvegicus, UniProt P61169)
[2] = target: T2, 5-hydroxytryptamine receptor 1A (Rattus norvegicus, UniProt P19327); test: biochemical
T2 sequence (P19327 whole entry): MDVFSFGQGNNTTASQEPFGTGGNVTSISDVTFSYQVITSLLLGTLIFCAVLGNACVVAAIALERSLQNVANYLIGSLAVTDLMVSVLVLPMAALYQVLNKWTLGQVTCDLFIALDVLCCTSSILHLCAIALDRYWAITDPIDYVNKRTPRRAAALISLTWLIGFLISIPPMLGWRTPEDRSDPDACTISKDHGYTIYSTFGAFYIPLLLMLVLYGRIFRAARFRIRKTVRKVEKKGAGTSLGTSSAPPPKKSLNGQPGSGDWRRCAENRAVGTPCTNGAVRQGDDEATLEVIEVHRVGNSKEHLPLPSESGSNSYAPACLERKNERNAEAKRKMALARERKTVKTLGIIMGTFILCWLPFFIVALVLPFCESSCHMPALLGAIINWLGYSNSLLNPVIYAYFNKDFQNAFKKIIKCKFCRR
Description: Displacement of [3H]8-OH-DPAT from 5HT1A receptor in rat cerebral cortex after 30 mins by liquid scintillation counting analysis

[3] = target: T3, Adrenergic receptor alpha-2 (Rattus norvegicus, UniProt P22086+P19328+P22909)
T3 sequence (P22086 whole entry): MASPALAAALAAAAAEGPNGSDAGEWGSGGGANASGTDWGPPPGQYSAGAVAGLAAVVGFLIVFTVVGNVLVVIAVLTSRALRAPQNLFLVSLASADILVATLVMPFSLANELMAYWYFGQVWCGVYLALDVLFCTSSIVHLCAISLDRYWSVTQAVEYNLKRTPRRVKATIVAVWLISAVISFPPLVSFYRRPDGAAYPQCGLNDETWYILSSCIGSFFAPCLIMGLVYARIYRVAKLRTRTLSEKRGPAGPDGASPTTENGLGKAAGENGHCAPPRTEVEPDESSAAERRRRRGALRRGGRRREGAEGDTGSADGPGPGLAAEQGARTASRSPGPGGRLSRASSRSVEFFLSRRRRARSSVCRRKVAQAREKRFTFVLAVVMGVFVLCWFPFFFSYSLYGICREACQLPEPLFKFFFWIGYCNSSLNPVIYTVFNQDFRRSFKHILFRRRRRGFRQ
T3 sequence (P19328 whole entry): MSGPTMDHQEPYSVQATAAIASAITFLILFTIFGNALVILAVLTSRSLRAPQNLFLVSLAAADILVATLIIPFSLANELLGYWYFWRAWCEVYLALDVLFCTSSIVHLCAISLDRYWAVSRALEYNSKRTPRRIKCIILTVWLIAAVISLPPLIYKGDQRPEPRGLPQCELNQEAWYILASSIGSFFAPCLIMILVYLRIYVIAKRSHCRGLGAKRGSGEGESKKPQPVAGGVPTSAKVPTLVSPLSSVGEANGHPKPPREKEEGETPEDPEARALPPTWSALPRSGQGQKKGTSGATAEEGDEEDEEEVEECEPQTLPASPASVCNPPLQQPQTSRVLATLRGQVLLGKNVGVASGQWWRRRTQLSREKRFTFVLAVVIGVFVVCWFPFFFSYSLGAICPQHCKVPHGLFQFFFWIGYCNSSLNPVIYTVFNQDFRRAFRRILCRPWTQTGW
T3 sequence (P22909 whole entry): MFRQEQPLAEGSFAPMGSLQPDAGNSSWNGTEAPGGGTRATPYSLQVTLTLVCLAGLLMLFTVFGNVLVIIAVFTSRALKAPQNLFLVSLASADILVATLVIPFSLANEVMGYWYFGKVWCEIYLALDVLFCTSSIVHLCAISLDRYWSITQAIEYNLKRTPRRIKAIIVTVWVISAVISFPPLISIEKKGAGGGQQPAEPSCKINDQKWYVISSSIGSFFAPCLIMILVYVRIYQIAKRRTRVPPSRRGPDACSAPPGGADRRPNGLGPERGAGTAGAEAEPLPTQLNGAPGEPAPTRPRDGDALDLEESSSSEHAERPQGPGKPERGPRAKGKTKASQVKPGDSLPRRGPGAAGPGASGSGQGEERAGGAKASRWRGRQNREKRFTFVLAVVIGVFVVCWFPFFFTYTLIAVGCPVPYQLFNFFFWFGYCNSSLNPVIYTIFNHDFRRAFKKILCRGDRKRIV
Description: Displacement of [3H]rauwolscine from alpha-2 adrenergic receptor in rat cerebral cortex after 60 mins by liquid scintillation counting analysis

D(2) dopamine receptor, sequence (P61169 whole entry): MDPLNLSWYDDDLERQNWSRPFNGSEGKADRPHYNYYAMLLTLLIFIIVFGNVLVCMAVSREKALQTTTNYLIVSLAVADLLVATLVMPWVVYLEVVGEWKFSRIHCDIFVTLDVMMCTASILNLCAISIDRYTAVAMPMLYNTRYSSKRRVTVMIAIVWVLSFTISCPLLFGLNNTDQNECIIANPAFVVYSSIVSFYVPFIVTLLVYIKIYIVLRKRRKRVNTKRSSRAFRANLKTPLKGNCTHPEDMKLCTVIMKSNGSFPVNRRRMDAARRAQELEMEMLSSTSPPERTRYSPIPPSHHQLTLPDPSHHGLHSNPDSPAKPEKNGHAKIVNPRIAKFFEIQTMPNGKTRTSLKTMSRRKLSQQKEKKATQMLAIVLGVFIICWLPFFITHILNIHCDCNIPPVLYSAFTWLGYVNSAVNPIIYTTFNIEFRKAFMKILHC

Row | Structure (SMILES) | Ki [1] | Ki (D(2) dopamine receptor) | Ki [2] | Ki [3]
1 | COc1ccccc1N1CCN(CCCCOc2ccc3c(C)cc(=O)oc3c2)CC1 | 1000 nM | 1.4 nM | 0.012 nM | 86.9 nM
2 | Cc1cc(=O)oc2c(C)c(OCCCCN3CCC(c4noc5cc(F)ccc45)CC3)ccc12 | 68.9 nM | 5.3 nM | 12.9 nM | 598.6 nM
3 | Cc1cc(=O)oc2cc(OCCCCN3CCC(c4noc5cc(F)ccc45)CC3)ccc12 | 11.9 nM | 4.9 nM | 3.5 nM | 159.6 nM
4 | Cc1cc(=O)oc2c(Cl)c(OCCCCN3CCC(c4noc5cc(F)ccc45)CC3)ccc12 | 1700 nM | 2.6 nM | 3.3 nM | 15.6 nM

More lines, in order of falling Ki [1], values ahead:

Row | Ki [1] | Ki (D(2) dopamine receptor) | Ki [2] | Ki [3] | Structure (SMILES)
5 | 389 nM | 4 nM | 16.7 nM | 124.3 nM | Cc1c(C)c2ccc(OCCCCN3CCC(c4noc5cc(F)ccc45)CC3)cc2oc1=O
6 | 256 nM | 14.8 nM | 12.7 nM | 46.9 nM | O=c1cc(-c2ccccc2)c2ccc(OCCCCN3CCC(c4noc5cc(F)ccc45)CC3)cc2o1
